Activity calls are given as the source filed them.
Experiments:
[1] = HEp-2 cell cytotoxicity, dose response, cytotoxicity control for RSV inhibitor project, HTS (AID 2410); assay type: functional; conditions: human respiratory syncytial virus
cells [2] = test: cells
[3] = molecular target: Mitogen-activated protein kinase 10 (Homo sapiens, UniProt P53779); test: Dose response biochemical screening assay for inhibitors of c-Jun N-Terminal Kinase 3 (JNK3). [Related pubchem assays: 746 ]
[4] = molecular target: T1, Epstein-Barr nuclear antigen 1 (Epstein-Barr virus (strain B95-8) (HHV-4) (Human herpesvirus 4), UniProt P03211); test: EBNA-1 inhibitors, dose response, biochemical, fluorescence polarization, 1536-well (AID 2381); design: species or system human gammaherpesvirus 4;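 also: fluorescence polarization of a Cy5 DNA probe bound by EBNA-1 protein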
T1 sequence (P03211 whole entry): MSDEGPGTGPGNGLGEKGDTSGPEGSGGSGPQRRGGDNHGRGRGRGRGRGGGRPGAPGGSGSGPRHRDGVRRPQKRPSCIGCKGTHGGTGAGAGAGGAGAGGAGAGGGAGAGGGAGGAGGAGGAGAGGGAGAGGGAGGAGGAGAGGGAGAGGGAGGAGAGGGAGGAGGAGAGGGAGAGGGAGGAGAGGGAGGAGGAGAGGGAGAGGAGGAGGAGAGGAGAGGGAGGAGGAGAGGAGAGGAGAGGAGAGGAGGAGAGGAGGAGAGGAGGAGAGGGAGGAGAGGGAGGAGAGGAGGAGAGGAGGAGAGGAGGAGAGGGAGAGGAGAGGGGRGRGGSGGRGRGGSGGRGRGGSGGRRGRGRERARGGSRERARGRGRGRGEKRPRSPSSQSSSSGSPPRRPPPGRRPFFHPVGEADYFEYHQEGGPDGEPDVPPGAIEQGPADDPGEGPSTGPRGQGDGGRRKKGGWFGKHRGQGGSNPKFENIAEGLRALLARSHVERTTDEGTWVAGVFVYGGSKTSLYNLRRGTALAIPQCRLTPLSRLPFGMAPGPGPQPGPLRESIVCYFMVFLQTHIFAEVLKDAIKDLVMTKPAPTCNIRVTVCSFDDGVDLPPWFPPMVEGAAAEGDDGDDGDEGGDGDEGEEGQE

[5] = molecular target: T2, Lytic switch protein BZLF1 (Epstein-Barr virus (strain B95-8) (HHV-4) (Human herpesvirus 4), UniProt P03206); test: EBV ZTA inhibitors, dose response, counter-screen for EBNA-1 inhibitor project, biochemical, fluorescence polarization, Epstein-Barr virus, 1536-well (AID 2377); design: species or system human gammaherpesvirus 4;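 also: fluorescence polarization of Cy5-labelled ZRE DNA probe bound by purified Zta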
T2 sequence (P03206 whole entry): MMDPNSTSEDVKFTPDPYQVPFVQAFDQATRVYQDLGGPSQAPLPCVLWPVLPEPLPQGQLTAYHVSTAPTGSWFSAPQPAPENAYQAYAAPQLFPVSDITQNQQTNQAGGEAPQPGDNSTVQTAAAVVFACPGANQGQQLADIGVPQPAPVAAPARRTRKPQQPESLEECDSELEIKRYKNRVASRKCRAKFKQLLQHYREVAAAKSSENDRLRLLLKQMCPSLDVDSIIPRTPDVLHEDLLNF

[6] = cytotoxicity toward NIH3T3 fibroblasts, dose response, counter-screen, cell-based, ATP luminescence, mouse fibroblasts (AID 2010); assay type: functional;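 also: cells exposed to compound for about 90 hours before reading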
cells [7] = test: cells; remark: listed apart in the source
[8] = inhibitors of intracellular T. cruzi replication, confirmation, NIH3T3 host cells, beta-gal luminescence (AID 2044); assay type: functional, cell-based;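 also: intracellular parasites grown in NIH/3T3 mouse fibroblasts as host cells; luminescent beta-galactosidase reporter signal from transgenic T. cruzi replicating inside host cells; inhibitors lower the luminescence signal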
[9] = molecular target: T3, Short transient receptor potential channel 4 (Mus musculus, UniProt Q9QUQ5); test: mouse TRPC4 channel activators, dose response, cell-based, HEK293 TRPC4/mu-opioid, Fluo-4 calcium (AID 434937); assay type: functional
T3 sequence (Q9QUQ5 whole entry): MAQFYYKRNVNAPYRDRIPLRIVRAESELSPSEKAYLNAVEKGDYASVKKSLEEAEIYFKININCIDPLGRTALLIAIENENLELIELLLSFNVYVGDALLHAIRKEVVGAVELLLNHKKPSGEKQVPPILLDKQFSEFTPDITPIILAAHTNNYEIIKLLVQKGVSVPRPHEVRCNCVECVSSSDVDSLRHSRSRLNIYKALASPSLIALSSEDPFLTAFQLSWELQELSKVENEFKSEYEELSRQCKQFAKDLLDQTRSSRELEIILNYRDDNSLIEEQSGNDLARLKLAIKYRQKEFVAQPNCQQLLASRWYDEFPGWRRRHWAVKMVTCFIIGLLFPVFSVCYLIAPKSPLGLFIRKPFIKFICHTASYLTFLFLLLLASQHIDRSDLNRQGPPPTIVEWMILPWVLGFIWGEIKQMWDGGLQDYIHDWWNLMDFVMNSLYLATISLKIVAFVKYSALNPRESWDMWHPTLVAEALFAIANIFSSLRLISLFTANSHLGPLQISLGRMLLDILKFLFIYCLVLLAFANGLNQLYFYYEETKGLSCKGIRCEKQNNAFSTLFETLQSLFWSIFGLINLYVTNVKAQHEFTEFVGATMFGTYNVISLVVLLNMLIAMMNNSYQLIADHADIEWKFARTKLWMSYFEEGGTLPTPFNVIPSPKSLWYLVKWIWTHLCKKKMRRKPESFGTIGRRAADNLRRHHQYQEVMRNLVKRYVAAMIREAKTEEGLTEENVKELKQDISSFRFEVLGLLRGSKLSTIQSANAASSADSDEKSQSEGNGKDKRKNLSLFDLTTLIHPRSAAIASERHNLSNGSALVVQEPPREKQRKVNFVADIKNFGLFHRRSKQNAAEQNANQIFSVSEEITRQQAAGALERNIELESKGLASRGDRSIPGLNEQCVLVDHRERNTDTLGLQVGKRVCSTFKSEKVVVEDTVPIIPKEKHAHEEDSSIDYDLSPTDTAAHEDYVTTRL

[10] = THP-1 cell cytotoxicity, dose response, cytotoxicity control for Vif-APOBEC3G degradation inhibitor project, THP-1 cells (AID 1117359); assay type: functional; conditions: Human immunodeficiency virus 1, THP-1
[11] = cytotoxicity in OVCAR8 ovarian cancer cells, dose response, PAX8 project, cell-based, plate reader, dry powder samples (AID 743197); assay type: functional; conditions: OVCAR-8
Paired box protein Pax-8 = Paired box protein Pax-8 (Homo sapiens, UniProt Q06710); test: inhibitors of PAX8-driven TPO luciferase reporter, dose response, RMG-I cells, cherry-pick (AID 687027); assay type: functional, cell-based;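 also: luciferase reporter driven by Pax8 target thyroperoxidase promoter measured by SteadyGlo luminescence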
[12] = molecular target: T4, Rac GTPase-activating protein 1 (Homo sapiens, UniProt Q9H0H5); test: MgcRacGAP GTPase-activating activity inhibitors, confirmation, biochemical, ADP Hunter fluorescence, primary and confirmatory (AID 624330); assay type: functional
T4 sequence (Q9H0H5 whole entry): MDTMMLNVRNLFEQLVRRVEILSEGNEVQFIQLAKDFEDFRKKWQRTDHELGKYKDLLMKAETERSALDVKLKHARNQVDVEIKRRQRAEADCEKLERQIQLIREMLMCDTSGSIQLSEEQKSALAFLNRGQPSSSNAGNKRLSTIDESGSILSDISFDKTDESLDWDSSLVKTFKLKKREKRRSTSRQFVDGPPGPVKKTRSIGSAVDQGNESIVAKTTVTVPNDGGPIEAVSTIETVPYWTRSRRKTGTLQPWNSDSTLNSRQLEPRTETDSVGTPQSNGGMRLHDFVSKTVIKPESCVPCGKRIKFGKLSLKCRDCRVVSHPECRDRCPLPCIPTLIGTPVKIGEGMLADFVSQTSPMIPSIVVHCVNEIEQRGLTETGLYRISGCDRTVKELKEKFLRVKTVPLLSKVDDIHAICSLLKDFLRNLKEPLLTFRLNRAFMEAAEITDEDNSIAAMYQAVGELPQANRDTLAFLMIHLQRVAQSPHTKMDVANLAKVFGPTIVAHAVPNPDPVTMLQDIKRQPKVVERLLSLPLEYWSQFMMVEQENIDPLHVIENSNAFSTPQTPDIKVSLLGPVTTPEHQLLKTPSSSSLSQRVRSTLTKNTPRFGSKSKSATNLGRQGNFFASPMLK

[13] = molecular target: T5, Mannose-6-phosphate isomerase (Homo sapiens, UniProt P34949); test: human PMI inhibitors, high substrate, primary screen, biochemical, fluorescence intensity, high mannose 6-phosphate (AID 1220)
T5 sequence (P34949 whole entry): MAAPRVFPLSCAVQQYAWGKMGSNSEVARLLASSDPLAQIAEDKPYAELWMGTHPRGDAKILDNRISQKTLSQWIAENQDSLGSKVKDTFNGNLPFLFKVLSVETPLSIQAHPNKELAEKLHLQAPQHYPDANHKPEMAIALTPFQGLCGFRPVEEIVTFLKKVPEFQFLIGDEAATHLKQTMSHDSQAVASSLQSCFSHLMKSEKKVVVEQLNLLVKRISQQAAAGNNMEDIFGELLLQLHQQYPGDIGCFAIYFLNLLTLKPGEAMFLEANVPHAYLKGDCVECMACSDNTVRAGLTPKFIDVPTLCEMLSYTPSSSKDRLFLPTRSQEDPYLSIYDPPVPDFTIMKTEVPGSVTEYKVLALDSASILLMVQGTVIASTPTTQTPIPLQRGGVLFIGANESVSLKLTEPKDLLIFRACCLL

[14] = P. falciparum ATP4 D1247Y mutant growth inhibitors, dose response, NITD609-resistant line, SYBR Green, dry powder (AID 1159571); assay type: functional, cell-based;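 also: parasites synchronized at ring stage by sorbitol before testing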
[15] = P. falciparum Dd2 growth inhibitors, dose response, SYBR Green, dry powder samples (AID 1159566); assay type: functional, cell-based;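 also: potency for growth inhibition with lower SYBR green DNA signal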
[16] = P. falciparum 3D7-ScDHODH growth inhibitors, dose response, SYBR Green, dry powder samples (AID 1159570); assay type: functional, cell-based;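 also: parasite growth measured after 72 hours of compound exposure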
[17] = P. falciparum Dd2 growth inhibitors, dose response, SYBR Green, cherry-picked samples (AID 1159567); assay type: functional, cell-based
[18] = C. albicans growth with fluconazole, confirmation, fluorescence, retest (AID 2467); assay type: functional, cell-based
[19] = NIH-3T3 fibroblast cytotoxicity, dose response, cytotoxicity control, cell-based, fluorescence, Alamar Blue, secondary assay (AID 2327); assay type: functional;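 also: NIH-3T3 mouse fibroblasts cultured with fluconazole at 8 µg/mL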
INS1 = test: beta cell apoptosis inhibitors, cytokine rescue, dose response, luminescence, retest (AID 449756); assay type: functional, cell-based; conditions: Rattus norvegicus;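 also: cell death triggered by IL-1 beta plus TNF-alpha plus IFN-gamma mixture; protective hits raise ATP signal compared with cytokine alone wells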

Chain of Mitogen-activated protein kinase 10 (P53779 whole entry): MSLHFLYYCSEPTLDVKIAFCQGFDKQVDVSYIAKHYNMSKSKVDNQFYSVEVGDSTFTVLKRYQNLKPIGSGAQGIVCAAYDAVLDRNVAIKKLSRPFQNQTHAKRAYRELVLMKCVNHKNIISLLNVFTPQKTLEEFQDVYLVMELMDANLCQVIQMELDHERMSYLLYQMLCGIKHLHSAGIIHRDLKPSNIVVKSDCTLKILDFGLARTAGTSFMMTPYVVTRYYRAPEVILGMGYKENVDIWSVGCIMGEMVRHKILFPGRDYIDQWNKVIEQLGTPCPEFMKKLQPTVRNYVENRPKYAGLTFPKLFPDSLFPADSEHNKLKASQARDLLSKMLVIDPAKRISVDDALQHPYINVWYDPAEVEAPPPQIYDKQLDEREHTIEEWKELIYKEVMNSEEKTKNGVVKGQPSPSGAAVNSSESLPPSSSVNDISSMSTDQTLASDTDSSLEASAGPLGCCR
Chain of Paired box protein Pax-8 (Q06710 whole entry): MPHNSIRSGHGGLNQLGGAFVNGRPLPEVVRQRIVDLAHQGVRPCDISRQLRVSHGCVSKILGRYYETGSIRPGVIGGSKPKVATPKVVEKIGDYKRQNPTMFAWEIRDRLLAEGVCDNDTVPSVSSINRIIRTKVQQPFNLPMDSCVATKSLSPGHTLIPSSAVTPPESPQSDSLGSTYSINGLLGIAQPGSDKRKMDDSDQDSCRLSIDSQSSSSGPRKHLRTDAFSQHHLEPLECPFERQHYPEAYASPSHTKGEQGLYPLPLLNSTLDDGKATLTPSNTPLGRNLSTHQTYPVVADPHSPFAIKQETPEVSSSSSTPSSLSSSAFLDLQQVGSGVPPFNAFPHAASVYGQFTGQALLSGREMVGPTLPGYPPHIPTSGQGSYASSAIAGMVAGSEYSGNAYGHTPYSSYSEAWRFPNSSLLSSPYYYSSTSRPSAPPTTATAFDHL

Q: What does the source list for `COc1ccc(-c2nnc(OCc3nc4ccccc4n3C)c3ccccc23)cc1`?
A: CC50 [1]: 38.6 µM (active); IC50 (cells [2]): 14.7 µM (active)

Q: With `CCOC(=O)c1ccc(Cn2cnc3ccccc3c2=O)cc1` as the compound, how does the IC50 [3] read?
A: 12.3 µM (not active)

Q: Which CC50 [1] does the source give for `COC(=O)c1sccc1NC(=O)CN1CCN(c2ccc(F)cc2)CC1` here?
A: 22.2 µM (active)

Q: What about the IC50 [3] of the same compound?
A: 15.6 µM (not active)

Q: What does the source list for `COc1ccc(-c2cn3c(C)c(C(=O)NCc4ccc5c(c4)OCO5)sc3n2)cc1`?
A: IC50 [4]: 4.84 µM (active); IC50 [5]: > 111 µM (not active)

Q: With `CN(CCOc1ccc(Br)cc1)CC(O)c1ccccc1` (configuration not stated) as the compound, how does the EC50 [6] read?
A: > 60 µM (not active)

Q: And the EC50 (cells [7])?
A: 269 nM (active)

Q: What about the EC50 [8] of the same compound?
A: < 100 nM (active)

Q: What about the EC50 [9] of the same compound?
A: 1.33 µM (active)

Q: Which CC50 [10] does the source give for `COc1ccc(/C=C/CN2CCN(Cc3ccccc3)C(CCO)C2)cc1` (configuration not stated) here?
A: > 40 µM (active)

Q: Which AC50 [11] does the source give for `O=C(C[C@@H]1C[C@@H]2c3cc(NS(=O)(=O)c4ccc(F)cc4)ccc3O[C@@H]2[C@@H](CO)O1)NCc1ccc(-c2ccccc2)cc1` here?
A: > 70 µM (inactive)

Q: What about the AC50 (Paired box protein Pax-8) of the same compound?
A: 4.41 µM (active)

Q: Which IC50 (cells [2]) does the source give for `C/C(N)=C(/C#N)C(=O)CN1C(=O)NC(Cc2c[nH]c3ccccc23)C1=O` (configuration not stated) here?
A: 1.91 µM (active)

Q: For `CCOC(=O)c1sc(/N=C/c2c(O)ccc3ccccc23)cc1C`, which IC50 [12] is on record?
A: 139 µM (active)

Q: And the IC50 [13]?
A: > 50 µM (not active)

Q: Which results are given for `COc1ccc2c3c([nH]c2c1)[C@H](CO)N(C(=O)C1CCCCC1)CC31CCN(Cc2nccs2)CC1`?
A: AC50 [14]: 198 nM (active); AC50 [15]: 183 nM (active); AC50 [16]: 158 nM (active); AC50 [17]: 833 nM (active)

Q: Which results are given for `CCN1/C(=C/c2cccc[n+]2C)Sc2ccc(OC)cc21`?
A: EC50 [18]: 961 nM (active); EC50 [6]: > 60 µM (not active); EC50 (cells [7]): 84 nM (active); EC50 [8]: < 100 nM (active); EC50 [19]: > 150 µM (inactive); AC50 (INS1): 1.65 µM (active)

Source: ChEMBL document CHEMBL1201862, “PubChem BioAssay data set” (2004)
